Test results: patent US20240123022A1, “A STABLE ANTI-ANGIOGENIC AND ANTI-INFLAMMATORY PHARMACEUTICAL FORMULATION AND PHARMACEUTICAL COMBINATION FOR TREATMENT AND PREVENTION OF PSORIASIS” (priority 2021, published 2024)

Legend:
[1] = system: Imiquimod (IMQ) induced psoriasis model using Balb/c mice; assay: IMQ induced psoriasis model, routes of administration (SC, IM, IV, IP); type: in vivo; conditions: for TNF-α reduced to / reduction in IL-23: ear homogenate
Procedure: The study was conducted in healthy, adult female Balb/c mice. All the animals were acclimatized to laboratory condition prior to experiment initiation.
Animals were randomized into 10 groups containing 6 animals each group, based on their body weight. Approximately 63 mg of IMQ cream (5%) (containing 3.125 mg of IMQ) was weighed and applied topically each on dorsal area (shaved back) and right ear of mice for 8 days in group 3-10. Groups 1 and 2 were served as controls and were treated with appropriate vehicle. Later groups 1 and 2 were merged for better calculation purpose.
Body weight, ear thickness and dorsal skin thickness was measured daily using digital caliper. Erythema index was recorded by mexameter and clinical scoring was also done daily for dorsal psoriatic area.
On day 9, animals were anesthetized for blood collection followed by euthanasia by C02 asphyxiation as per in-house approved standard protocol.
About 4 mm ear punch biopsy was collected, weighed and fixed in about 10% neutral buffer formalin for histopathological analysis (via H and E staining). Remaining ear was excised and stored at about −80° C. for inflammatory cytokine analysis. Dorsal skin was also collected, and half was kept in formalin. Spleen was also collected and weighed and kept in formalin.
In this study three different routes i.e., SC, IM and IV at different doses ranging from 0.3, 0.6 and 1.2 mg/kg were used to see dose response curve, the results were as follows: […]

[2] = system: TPA induced ear inflammation model in C57BL/6 mice; type: in vivo
Text: The experimental procedure and doses and route of administration are same as IMQ model.

[3] = Stability of IS217 1% cream, long term 30° C. ± 2° C./65% RH; type: physicochemical; conditions: 24 months at room temperature
Procedure: The purpose of stability testing is to provide evidence on how the quality of a drug product varies with time under the influence of a variety of environmental factors such as temperature, humidity, etc. and to establish a re-test period for the drug substance or a shelf life for the drug product and recommended storage conditions. The study was conducted according to the WHO and schedule-Y guidelines.
The drug product was manufactured by Issar Pharma. Three batches were manufactured at pilot scale level by the same synthetic route as, and using a method of manufacture and procedure that simulates the final process to be used for, production batches. The overall quality of the batches of drug product placed on these stability studies will be representative of the quality of the material to be made on a production scale.
A soft squeezable plastic tube will be used as primary packing material. The tube is a cylindrical, hollow piece with a rounded shape design.
This study has included testing of those attributes of the drug product that are susceptible to change during storage and are likely to influence quality, safety and/or efficacy. The testing was covered, as appropriate, the physical and chemical attributes. […]

Substance: H-FAKKFAKKFK-OH [IS217, H-Phe-Ala-Lys-Lys-Phe-Ala-Lys-Lys-Phe-Lys-OH]
- ear biopsy weight ([1]; 0.3 mg/kg SC, day 9, vs other doses and routes): maximum effect
- hyperkeratosis, edema, inflammatory cell infiltration and ear thickness in histopathology examination of ear ([1]; 0.3 mg/kg SC, p < 0.01): reduced
- TNF-α reduced to ([1]; 0.6 mg/kg): 13.94%
- reduction in IL-23 ([1]; 0.6 mg/kg): 49.68%
- TNF-α level in ear tissue homogenate ([1]; 1.2 mg/kg SC): partially reduced
- TNF-α and IL-23 levels, rete peg proliferation in histopathology examination of ear ([1]; 1.2 mg/kg SC, p < 0.01): dose lowered
- absolute ear thickness reduction, maximum inhibition ([1]; 1.2 mg/kg dose): 80.36%
- TNF-α reduced to ([1]; 1.2 mg/kg): 24.25%
- reduction in IL-23 ([1]; 1.2 mg/kg): 59.85%
- reduction of IL-23 levels ([1]; 0.3-1.2 mg/kg SC, by all above observations): prominent dose dependent results
- percentage inhibition of ear inflammation, maximum inhibitory activity ([1]; IM route): 59.12%
- body weight ([1]; IS217 SC, IM, IV, IP, 8 days): No significant change
- IL-17 in ear tissue homogenate ([1]; IV treatment): maximum inhibition
- spleen weight reduction ([1]; IV treatment group, not statistically significant): maximum reduction
- spleen weight reduction ([1]; SC treatment groups): No effect
- IMQ induced hyperkeratosis, edema, Rete Peg proliferation, inflammatory cell infiltration (ear histopathology) ([1]; SC, low dose of 0.3 mg/kg): maximum reduction
- cumulative psoriatic score of dorsal area ([1]; any treatment group): No significant reduction
- erythema index ([1]; any treatment group): No significant reduction
- percentage inhibition of ear inflammation, maximum inhibitory response ([1]; low dose, from day 6): 32.08%
- IL-17A and spleen weight ([1]; mouse, in vivo): no trend
- reduction in IL-23 levels in ear tissue homogenate ([2]; 0.60 mg/kg): 42.12%
- maximum ear thickness inhibition ([2]; 1.2 mg/kg): 80.36%
- MPO levels ([2]; 1.2 mg/kg SC, conclusion of in vivo studies, model not stated): significant reduction
- absolute ear thickness ([2]; 1.2 mg/kg-4.8 mg/kg): significant reduction
- ear thickness (absolute, histopathology, ear punch biopsy) ([2]; IS217 (all doses) < MTX, p < 0.001): Decreased ear
- Ear homogenate ELISA TNF-α, IL-23, IL-6, MPO ([2]; p < 0.01): MPO reduction
- stability of drug product (1% cream) [3]: stable
